# System: Alopecurus myosuroides
# Assay: Pre-emergence herbicidal activity, ALOMY
# Format: in vivo
# Details: Application pre-emergence, 1000 g/Ha, evaluated after 13 days, scale 0-5
# Experimental: (§1) Seeds of a variety of test species were sown in standard soil in pots. After cultivation for one day (pre-emergence) under controlled conditions in a glasshouse (at 24/16° C., day/night; 14 hours light; 65% humidity), the plants were sprayed with an aqueous spray solution derived from the formulation of the technical active ingredient in acetone/water (50:50) solution containing 0.5% Tween 20 (polyoxyethelyene sorbitan monolaurate, CAS RN 9005-64-5). The test plants were then grown in a glasshouse under controlled conditions (at 24/16° C., day/night; 14 hours light; 65% humidity) and watered twice daily. After 13 days, the test was evaluated (5=total damage to plant; 0=no damage to plant).
row,Compound,ALOMY damage score
1,CN1CC(O)N(c2cc(C(F)(F)F)c(-c3ccc(C#N)cc3)cn2)C1=O (stereo not drawn) [Compound A16],2
2,CN1CC(O)N(c2cc(C(F)(F)F)c(Br)cn2)C1=O (stereo not drawn) [Compound A19],5
3,CN1CC(O)N(c2cc(C(C)(C)F)ccn2)C1=O (stereo not drawn) [Compound A38],4
4,CN1CC(O)N(c2cc(C(F)(F)F)c(-c3ccccc3)cn2)C1=O (stereo not drawn) [Compound A3],4

# System: Setaria faberi
# Assay: Pre-emergence herbicidal activity, SETFA
# Format: in vivo
# Details: Application pre-emergence, 1000 g/Ha, evaluated after 13 days, scale 0-5
# Experimental: as §1
row,Compound,SETFA damage score
1,CN1CC(O)N(c2cc(C(F)(F)F)c(-c3ccc(C#N)cc3)cn2)C1=O (stereo not drawn) [Compound A16],4
2,CN1CC(O)N(c2cc(C(F)(F)F)c(Br)cn2)C1=O (stereo not drawn) [Compound A19],5
3,CN1CC(O)N(c2cc(C(C)(C)F)ccn2)C1=O (stereo not drawn) [Compound A38],4
4,CN1CC(O)N(c2cc(C(F)(F)F)c(-c3ccccc3)cn2)C1=O (stereo not drawn) [Compound A3],5

# System: Setaria faberi
# Assay: Post-emergence herbicidal activity, SETFA
# Format: in vivo
# Details: Application post-emergence, 1000 g/Ha, evaluated after 13 days, scale 0-5
# Experimental: (§2) Seeds of a variety of test species were sown in standard soil in pots. After 8 days cultivation (post-emergence) under controlled conditions in a glasshouse (at 24/16° C., day/night; 14 hours light; 65% humidity), the plants were sprayed with an aqueous spray solution derived from the formulation of the technical active ingredient in acetone/water (50:50) solution containing 0.5% Tween 20 (polyoxyethelyene sorbitan monolaurate, CAS RN 9005-64-5). The test plants were then grown in a glasshouse under controlled conditions (at 24/16° C., day/night; 14 hours light; 65% humidity) and watered twice daily. After 13 days, the test was evaluated (5=total damage to plant; 0=no damage to plant).
row,Compound,SETFA damage score
1,CN1CC(O)N(c2cc(C(F)(F)F)c(-c3ccc(C#N)cc3)cn2)C1=O (stereo not drawn) [Compound A16],5
2,CN1CC(O)N(c2cc(C(F)(F)F)c(Br)cn2)C1=O (stereo not drawn) [Compound A19],5
3,CN1CC(O)N(c2cc(C(C)(C)F)ccn2)C1=O (stereo not drawn) [Compound A38],5
4,CN1CC(O)N(c2cc(C(F)(F)F)c(-c3ccccc3)cn2)C1=O (stereo not drawn) [Compound A3],5

# System: Echinochloa crus-galli
# Assay: Pre-emergence herbicidal activity, ECHCG
# Format: in vivo
# Details: Application pre-emergence, 1000 g/Ha, evaluated after 13 days, scale 0-5
# Experimental: as §1
row,Compound,ECHCG damage score
1,CN1CC(O)N(c2cc(C(F)(F)F)c(-c3ccc(C#N)cc3)cn2)C1=O (stereo not drawn) [Compound A16],3
2,CN1CC(O)N(c2cc(C(F)(F)F)c(Br)cn2)C1=O (stereo not drawn) [Compound A19],5
3,CN1CC(O)N(c2cc(C(C)(C)F)ccn2)C1=O (stereo not drawn) [Compound A38],4
4,CN1CC(O)N(c2cc(C(F)(F)F)c(-c3ccccc3)cn2)C1=O (stereo not drawn) [Compound A3],5

# System: Zea mays
# Assay: Post-emergence herbicidal activity, ZEAMX
# Format: in vivo
# Details: Application post-emergence, 1000 g/Ha, evaluated after 13 days, scale 0-5
# Experimental: as §2
row,Compound,ZEAMX damage score
1,CN1CC(O)N(c2cc(C(F)(F)F)c(-c3ccc(C#N)cc3)cn2)C1=O (stereo not drawn) [Compound A16],5
2,CN1CC(O)N(c2cc(C(F)(F)F)c(Br)cn2)C1=O (stereo not drawn) [Compound A19],4
3,CN1CC(O)N(c2cc(C(C)(C)F)ccn2)C1=O (stereo not drawn) [Compound A38],4
4,CN1CC(O)N(c2cc(C(F)(F)F)c(-c3ccccc3)cn2)C1=O (stereo not drawn) [Compound A3],2

# System: Abutilon theophrasti
# Assay: Pre-emergence herbicidal activity, ABUTH
# Format: in vivo
# Details: Application pre-emergence, 1000 g/Ha, evaluated after 13 days, scale 0-5
# Experimental: as §1
row,Compound,ABUTH damage score
1,CN1CC(O)N(c2cc(C(F)(F)F)c(-c3ccc(C#N)cc3)cn2)C1=O (stereo not drawn) [Compound A16],3
2,CN1CC(O)N(c2cc(C(F)(F)F)c(Br)cn2)C1=O (stereo not drawn) [Compound A19],5
3,CN1CC(O)N(c2cc(C(C)(C)F)ccn2)C1=O (stereo not drawn) [Compound A38],5
4,CN1CC(O)N(c2cc(C(F)(F)F)c(-c3ccccc3)cn2)C1=O (stereo not drawn) [Compound A3],5

# System: Amaranthus retroflexus
# Assay: Post-emergence herbicidal activity, AMARE
# Format: in vivo
# Details: Application post-emergence, 1000 g/Ha, evaluated after 13 days, scale 0-5
# Experimental: as §2
row,Compound,AMARE damage score
1,CN1CC(O)N(c2cc(C(F)(F)F)c(-c3ccc(C#N)cc3)cn2)C1=O (stereo not drawn) [Compound A16],5
2,CN1CC(O)N(c2cc(C(F)(F)F)c(Br)cn2)C1=O (stereo not drawn) [Compound A19],5
3,CN1CC(O)N(c2cc(C(C)(C)F)ccn2)C1=O (stereo not drawn) [Compound A38],5
4,CN1CC(O)N(c2cc(C(F)(F)F)c(-c3ccccc3)cn2)C1=O (stereo not drawn) [Compound A3],5

# System: Zea mays
# Assay: Pre-emergence herbicidal activity, ZEAMX
# Format: in vivo
# Details: Application pre-emergence, 1000 g/Ha, evaluated after 13 days, scale 0-5
# Experimental: as §1
row,Compound,ZEAMX damage score
1,CN1CC(O)N(c2cc(C(F)(F)F)c(-c3ccc(C#N)cc3)cn2)C1=O (stereo not drawn) [Compound A16],3
2,CN1CC(O)N(c2cc(C(F)(F)F)c(Br)cn2)C1=O (stereo not drawn) [Compound A19],5
3,CN1CC(O)N(c2cc(C(C)(C)F)ccn2)C1=O (stereo not drawn) [Compound A38],0
4,CN1CC(O)N(c2cc(C(F)(F)F)c(-c3ccccc3)cn2)C1=O (stereo not drawn) [Compound A3],4

# System: Abutilon theophrasti
# Assay: Post-emergence herbicidal activity, ABUTH
# Format: in vivo
# Details: Application post-emergence, 1000 g/Ha, evaluated after 13 days, scale 0-5
# Experimental: as §2
row,Compound,ABUTH damage score
1,CN1CC(O)N(c2cc(C(F)(F)F)c(-c3ccc(C#N)cc3)cn2)C1=O (stereo not drawn) [Compound A16],5
2,CN1CC(O)N(c2cc(C(F)(F)F)c(Br)cn2)C1=O (stereo not drawn) [Compound A19],5
3,CN1CC(O)N(c2cc(C(C)(C)F)ccn2)C1=O (stereo not drawn) [Compound A38],5
4,CN1CC(O)N(c2cc(C(F)(F)F)c(-c3ccccc3)cn2)C1=O (stereo not drawn) [Compound A3],5

# System: Echinochloa crus-galli
# Assay: Post-emergence herbicidal activity, ECHCG
# Format: in vivo
# Details: Application post-emergence, 1000 g/Ha, evaluated after 13 days, scale 0-5
# Experimental: as §2
row,Compound,ECHCG damage score
1,CN1CC(O)N(c2cc(C(F)(F)F)c(-c3ccc(C#N)cc3)cn2)C1=O (stereo not drawn) [Compound A16],5
2,CN1CC(O)N(c2cc(C(F)(F)F)c(Br)cn2)C1=O (stereo not drawn) [Compound A19],5
3,CN1CC(O)N(c2cc(C(C)(C)F)ccn2)C1=O (stereo not drawn) [Compound A38],5
4,CN1CC(O)N(c2cc(C(F)(F)F)c(-c3ccccc3)cn2)C1=O (stereo not drawn) [Compound A3],5

# System: Amaranthus retroflexus
# Assay: Pre-emergence herbicidal activity, AMARE
# Format: in vivo
# Details: Application pre-emergence, 1000 g/Ha, evaluated after 13 days, scale 0-5
# Experimental: as §1
row,Compound,AMARE damage score
1,CN1CC(O)N(c2cc(C(F)(F)F)c(-c3ccc(C#N)cc3)cn2)C1=O (stereo not drawn) [Compound A16],5
2,CN1CC(O)N(c2cc(C(F)(F)F)c(Br)cn2)C1=O (stereo not drawn) [Compound A19],5
3,CN1CC(O)N(c2cc(C(C)(C)F)ccn2)C1=O (stereo not drawn) [Compound A38],5
4,CN1CC(O)N(c2cc(C(F)(F)F)c(-c3ccccc3)cn2)C1=O (stereo not drawn) [Compound A3],5

# System: Alopecurus myosuroides
# Assay: Post-emergence herbicidal activity, ALOMY
# Format: in vivo
# Details: Application post-emergence, 1000 g/Ha, evaluated after 13 days, scale 0-5
# Experimental: as §2
row,Compound,ALOMY damage score
1,CN1CC(O)N(c2cc(C(F)(F)F)c(-c3ccc(C#N)cc3)cn2)C1=O (stereo not drawn) [Compound A16],5
2,CN1CC(O)N(c2cc(C(F)(F)F)c(Br)cn2)C1=O (stereo not drawn) [Compound A19],5
3,CN1CC(O)N(c2cc(C(C)(C)F)ccn2)C1=O (stereo not drawn) [Compound A38],5
4,CN1CC(O)N(c2cc(C(F)(F)F)c(-c3ccccc3)cn2)C1=O (stereo not drawn) [Compound A3],5

# — US20160251332A1, “Herbicidal Compounds” (SYNGENTA PARTICIPATIONS AG, priority 2013, published 2016)
